The assay deals with T1, cnCka1 (Cryptococcus neoformans CK2α orthologue, Cka1) (Cryptococcus neoformans, UniProt J9VNH4).
T1 construct: gene CNAG_05694; full-length, Met1–Pro338 (His6-TRX fusion in SPR; tag removed for crystal)
The assay is described as follows: SPR (Biacore […]) and crystal structure at […] Å; also ADP-Glo kinase assay. The assay is classed as binding. (In general: Surface plasmon resonance follows binding to a sensor surface in real time, without labels.)

The text below walks through data of paper PMC6779870, “Structural analysis of fungal pathogenicity-related casein kinase α subunit, Cka1, in the human fungal pathogen Cryptococcus neoformans” (Scientific Reports, 2019).

T1 sequence (J9VNH4 entry or part of it): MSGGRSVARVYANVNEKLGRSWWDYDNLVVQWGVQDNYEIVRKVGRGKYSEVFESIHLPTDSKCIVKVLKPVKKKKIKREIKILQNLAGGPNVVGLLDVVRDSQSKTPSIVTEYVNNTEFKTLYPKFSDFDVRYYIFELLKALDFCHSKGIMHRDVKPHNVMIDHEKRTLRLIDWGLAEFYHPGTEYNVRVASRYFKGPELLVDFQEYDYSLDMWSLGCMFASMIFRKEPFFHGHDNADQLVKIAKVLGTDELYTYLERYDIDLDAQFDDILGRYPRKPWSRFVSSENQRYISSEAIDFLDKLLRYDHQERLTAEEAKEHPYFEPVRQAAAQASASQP

As to `O=C(O)c1ccc2c(c1)nc(Nc1cccc(Cl)c1)c1ccncc12` [CX-4945, 5-(3-chlorophenylamino)benzo[c][2,6]naphthyridine-8-carboxylic acid], the Kd (as a rule, the constant that tells how readily two partners part at equilibrium) is 60.1 nM.
